One assay has as its target T1, adenosine A-2 receptors (Rattus norvegicus, UniProt P30543).
T1 construct: from tissue; host or cells: rat brain striatum membranes (young male C-D strain rats, Charles River)
As to the kind of experiment: Test for affinity for brain adenosine A-2 receptors ([3H]NECA competition, striatal membranes). The format is binding. Particulars: rat brain striatum membranes, [3H]NECA 94 nM, 25°C, 60 minutes; read-out: A-2 Receptor Ki. Here is the method:
Membranes for ligand binding are isolated from rat brain striatum. The tissue is homogenized in 20 vol. ice-cold 50 mM Tris-HCl buffer (pH 7.7) using a polytron (setting for 6 to 20 seconds). The homogenate is centrifuged at 50,000 x g for 10 minutes at 4°C. The pellet is again homogenized in a polytron in 20 vol. of buffer, and centrifuged as before. The pellet is finally resuspended in 40 vol. of 50 mM Tris-HCl (pH 7.7) per gram of original wet weight of tissue.
Incubations are carried out at 25°C for 60 minutes. Each tube is filtered through GF/B glass fiber filters using a vacuum. The filters are rinsed two times with 5 ml of the ice-cold buffer. […] The filters are counted by liquid scintillation spectrometry.
Specific binding of [3H]NECA is measured as the excess over blank runs in the presence of 100 µM 2-chloroadenosine. Total membrane-bound radioactivity is about 2.5% of that added to the test tubes. […] Specific binding to membranes is about 50% of the total bound.

For a further assay, the target named is T2, adenosine A-1 receptor (Rattus norvegicus, UniProt P25099).
T2 sequence (P25099 1-326): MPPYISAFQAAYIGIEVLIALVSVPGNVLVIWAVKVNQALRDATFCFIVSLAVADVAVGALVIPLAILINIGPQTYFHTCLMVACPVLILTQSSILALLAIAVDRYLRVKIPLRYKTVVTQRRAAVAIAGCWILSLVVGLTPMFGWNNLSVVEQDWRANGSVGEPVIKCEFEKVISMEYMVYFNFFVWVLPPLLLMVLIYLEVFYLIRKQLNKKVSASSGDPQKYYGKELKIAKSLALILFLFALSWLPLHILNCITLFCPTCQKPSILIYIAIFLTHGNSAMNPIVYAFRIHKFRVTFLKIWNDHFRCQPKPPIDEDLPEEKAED
As to the kind of experiment: biochemical.

The test system of another assay is adenosine receptors. Particulars: in vivo; cited from earlier work.
The target in a further assay is A-2 receptors. Particulars: brain slice assay; cited from earlier work.

T1 sequence (P30543 whole entry): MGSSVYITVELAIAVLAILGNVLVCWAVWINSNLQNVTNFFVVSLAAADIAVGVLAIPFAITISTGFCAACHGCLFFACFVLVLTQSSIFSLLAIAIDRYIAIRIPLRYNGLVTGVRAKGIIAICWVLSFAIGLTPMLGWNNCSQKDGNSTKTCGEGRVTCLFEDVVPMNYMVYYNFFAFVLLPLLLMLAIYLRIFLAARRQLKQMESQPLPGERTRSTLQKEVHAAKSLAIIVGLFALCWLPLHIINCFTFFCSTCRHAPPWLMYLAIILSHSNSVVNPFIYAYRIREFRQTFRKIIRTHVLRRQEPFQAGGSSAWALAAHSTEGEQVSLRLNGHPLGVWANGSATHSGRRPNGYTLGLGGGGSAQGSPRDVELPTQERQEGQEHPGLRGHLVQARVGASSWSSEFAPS

In the case of `CCCOC1=Nc2c(cnn2-c2ccccc2)C2=N[C@H](Cc3ccccc3)CN12` [Compound 1, (R)-2,7-dihydro-7-phenyl-2-(phenylmethyl)-5-propoxy-3H-imidazo[1,2-c]pyrazolo[4,3-e]pyrimidine], the Ki (usually a measure of affinity in units of concentration, obtained from inhibition or displacement) at adenosine A-2 receptors is more than 6.99 µM; on adenosine A-1 receptor, 1.24 µM.
For `CCCOC1=Nc2c(cnn2-c2ccccc2)C2=N[C@@H](Cc3ccccc3)CN12` [Compound 2, (S)-2,7-dihydro-7-phenyl-2-(phenylmethyl)-5-propoxy-3H-imidazo[1,2-c]pyrazolo[4,3-e]pyrimidine], the Ki was 0.508 µM at adenosine A-2 receptors and 2.68 µM on adenosine A-1 receptor.
For `C1=Nc2c(cnn2-c2ccccc2)C2=N[C@H](Cc3ccccc3)CN12` [Compound 3, (R)-2,7-dihydro-7-phenyl-2-(phenylmethyl)-3H-imidazo[1,2-c]pyrazolo[4,3-e]pyrimidine], the values for the Ki on adenosine A-2 receptors and on adenosine A-1 receptor were 25 µM and 1.9 µM, respectively.
For the compound `C1=Nc2c(cnn2-c2ccccc2)C2=N[C@@H](Cc3ccccc3)CN12` [Compound 4, (S)-2,7-dihydro-7-phenyl-2-(phenylmethyl)-3H-imidazo[1,2-c]pyrazolo[4,3-e]pyrimidine], the Ki was more than 199 µM on adenosine A-2 receptors and 10 µM on adenosine A-1 receptor.
In the same order, the values of `C1=Nc2c(ncn2-c2ccccc2)C2=N[C@@H](Cc3ccccc3)CN12` [Compound 5, (S)-7,8-dihydro-3-phenyl-8-(phenylmethyl)-3H-diimidazo[1,2-c:4',5'-e]pyrimidine] are more than 199 µM and 44.6 µM.
In the same order, the values of `C1=Nc2c(ncn2-c2ccccc2)C2=N[C@H](Cc3ccccc3)CN12` [Compound 6, (R)-7,8-dihydro-3-phenyl-8-(phenylmethyl)-3H-diimidazo[1,2-c:4',5'-e]pyrimidine] are 100 µM and 8.4 µM.
With `CCCOC1=Nc2c(cnn2-c2ccccc2)C2=N[C@H](C)[C@@H](c3ccccc3)N12` [Compound 7, (2R-trans)-2,7-dihydro-2-methyl-3,7-diphenyl-5-propoxy-3H-imidazo[1,2-c]pyrazolo[4,3-e]pyrimidine], the Ki on adenosine A-2 receptors was 14.2 µM; at adenosine A-1 receptor, 12.1 µM.
Taken in the same sequence, the figures for `C1=Nc2nc[nH]c2C2=N[C@H](Cc3ccccc3)CN12` [Compound 9, (R)-7,8-dihydro-8-(phenylmethyl)-1H-diimidazo[1,2-c:4',5'-e]pyrimidine] were more than 199 µM and 199 µM.
With `C1=Nc2nc[nH]c2C2=N[C@@H](Cc3ccccc3)CN12` [Compound 10, (S)-7,8-dihydro-8-(phenylmethyl)-1H-diimidazo[1,2-c:4',5'-e]pyrimidine], the results for the Ki on adenosine A-2 receptors and on adenosine A-1 receptor were more than 199 µM and 199 µM, respectively.
In the same order, the values of `OC[C@H]1O[C@@H](n2cnc3c2N=CN2C[C@H](Cc4ccccc4)N=C32)[C@H](O)[C@@H]1O` [Compound 13, (S)-7,8-dihydro-3-(β-D-ribofuranosyl)-8-(phenylmethyl)-3H-diimidazo[1,2-c:4',5'-e]pyrimidine] are 10.6 µM and 4.5 µM.
In the case of `OC[C@H]1O[C@@H](n2cnc3c2N=CN2C[C@@H](Cc4ccccc4)N=C32)[C@H](O)[C@@H]1O` [Compound 14, (R)-7,8-dihydro-3-(β-D-ribofuranosyl)-8-(phenylmethyl)-3H-diimidazo[1,2-c:4',5'-e]pyrimidine], the Ki on adenosine A-2 receptors was found to be 46.8 µM; on adenosine A-1 receptor, 65 µM.
In the case of `CCCn1c(=O)c2[nH]c(-c3ccc(OCC(=O)NCCN)cc3)nc2n(CCC)c1=O` [XAC], the “potency in antagonizing the effects of adenosine analogs on heart rate versus blood pressure” value in the assay on adenosine receptors is on record as “much more potent in antagonizing the effects of adenosine analogs on heart rate than on blood pressure”. Moreover, at A-2 receptors, the Ki is 0.049 ± 0.017 µM.
In the case of `CCCn1c(=O)c2[nH]c(-c3ccc(OCC(=O)O)cc3)nc2n(CCC)c1=O` [XCC], the Ki on A-2 receptors was 0.034 ± 0.013 µM.
